Laboratory results taken from patent publication US20260000642A1 (Tay Therapeutics Limited, priority 2022, published 2026).

Legend:
[1] = Plasma stability assay, rat plasma; type: in vitro ADME; conditions: 37° C., Method 1 (5 μM)
Procedure, shortened: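 Compound incubated in plasma at 37° C, either at 5 μM (0.5% DMSO) sampled at 0, 15, 30, 60, 120 min (Method 1) or at 10 μM (2% DMSO) sampled at 0, 15, 30, 60, 90, 120 min (Method 2). Quenched with cold acetonitrile plus internal standard; LC-MS/MS, % remaining relative to 0 min.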

[2] = tested on: CXCL10; assay: Human PBMC assay, CXCL10 by ELISA (IFN-γ stimulation); type: cell-based
Method: The impact of Examples 23, 80, and 101 on IL-17A, IL-22, and CXCL10 levels was analyzed in cryopreserved human peripheral blood mononuclear cells (PBMC) by ELISA.
For IL-17A and IL-22 assays, Examples 23, 80, and 101 were serially diluted from 10 mM in DMSO and further diluted in assay media to 100× the required final concentration, of which, 2 μL was added per well to a round-bottom 96-well tissue culture plate where the final DMSO concentration per well was 0.1%. CD2, CD3, and CD28 antibody-coated beads from the T-cell activation/expansion kit (Miltenyi Biotec) were added to the PBMC at a bead-to-cell ratio of 1:2. The mixture of PBMCs and beads were seeded into the wells of the round-bottom 96-well plate at a concentration of 2×10^5 cells/well in a total volume of 200 μL. The cells were cultured for 72 hours at 37° C. and 5% CO2 and then supernatants were collected and IL-17A and IL-22 levels were measured by ELISA. For the CXCL10 assay, Examples 23, 80, and 101 were serially diluted from 10 mM in DMSO and further diluted in assay media to 100× the required final concentration, of which 2 μL was added per well to a 96-well tissue culture plate. The final compound concentration ranged from 30,000 nM to 0.005 nM and the final DMSO concentration per well was 0.3%. PBMCs were seeded at approximately […] in the wells of the 96-well tissue culture plate in a total volume of 190 μL. The plate was incubated for 1 hour at 37° C. and 5% CO2. The cells were then stimulated with IFN-γ (15 ng/mL final concentration) in a volume of 10 μL. The cells were then cultured for 24 hours at 37° C. and 5% CO2. The supernatant was collected and CXCL10 levels were measured by ELISA.

CNC(=O)c1[nH]c(C(=O)NC2CCC2)cc1O[C@@H](C)c1ccccc1 [Example 101, N^5-cyclobutyl-N^2-methyl-3-(1-phenylethoxy)-1H-pyrrole-2,5-dicarboxamide]
Plasma Stability (% remaining at 120 minutes) Rat [1]: 61%
selectivity to induction of CXCL10 relative to IL-17A and IL-22 [2]: showed selectivity
IC50 for CXCL-10 relative to GSK620 ([2]; IFN-γ, 24 hours, ELISA): substantially lower 1050
